Reference: patent publication US20100004159A1, “SUBSTITUTED IMIDAZOLONE DERIVATIVES, PREPARATIONS AND USES” (GENFIT, priority 2006, published 2010)

What was measured:
[1] = biological target: T1, angiotensin II AT1 receptor (Oryctolagus cuniculus, UniProt P34976); assay: Ex vivo agonist/antagonist activity on isolated rabbit thoracic aorta rings; conditions: 0.3, 3 and 30 μM; for agonist activity (contraction): non-treated rabbit thoracic aorta; for antagonist activity (inhibition of contractile response to angiotensin II): rabbit thoracic aorta previously exposed to angiotensin II 0.003 μM
T1 construct: tissue CEREP; host or cells: rabbit thoracic aorta rings
T1 sequence (P34976 1-359): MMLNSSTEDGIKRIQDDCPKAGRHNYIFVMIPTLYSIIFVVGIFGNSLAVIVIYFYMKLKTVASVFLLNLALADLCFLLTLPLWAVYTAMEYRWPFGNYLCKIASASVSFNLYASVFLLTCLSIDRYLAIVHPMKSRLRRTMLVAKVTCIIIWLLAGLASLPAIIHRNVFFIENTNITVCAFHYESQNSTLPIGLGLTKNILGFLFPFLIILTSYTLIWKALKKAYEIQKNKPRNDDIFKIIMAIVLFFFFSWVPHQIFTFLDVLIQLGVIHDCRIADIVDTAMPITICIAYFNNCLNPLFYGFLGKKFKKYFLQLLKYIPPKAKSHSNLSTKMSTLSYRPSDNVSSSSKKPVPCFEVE
Protocol: This activity is either agonist or antagonist and was evaluated ex vivo on isolated organs. Agonist activity corresponds to tissue contraction. Antagonist activity corresponds to tissue dilatation.
The ex vivo test was performed at the CEREP (Celle L'Evescault, France (86)) following a protocol based on Pendleton et al. (Pendleton R G et al.,1989). Rabbit thoracic aorta rings with intact endothelium were suspended in baths for organs containing an oxygenated physiologic saline solution (95% O2 and 5% CO2) and preheated (37° C.) having the following composition (mM): NaCl 118.0, KCl 4.7, MgSO4 1.2, CaCl2 2.5, KH2PO4 1.2, NaHCO3 25.0, and glucose 11.0 (pH 7.4).
Benextramine (1 μM), propranolol (1 μM), pyrilamine (1 μM), atropine (1 μM), methysergide (1 μM), and captopril (0.1 μM) were also used in all carried out experiments to block respectively α-adrenergic, β-adrenergic, histaminic H1 muscarinic, and 5-HT2 receptors as well as to prevent peptide degradation. The tissues were bound to a force sensor suitable for isometric tension recording. They were stretched to a resting tension of 4 g, then stabilized for 60 minutes. During the stabilization, they were washed several times and the tension was adjusted. The experiments were carried out using semi-automatic systems of isolated organs with eight organ baths and multichannel data acquisition.
The tissues were exposed to a submaximal concentration of the reference agonist (angiotensin II at 0.003 μM) to verify the response and obtain a control contractile response.
After several washing operations and after having recovered the basal tone, the tissues were exposed to increasing concentrations of compounds according to the invention or the same agonist. The different concentrations were added cumulatively, each one was left in contact with the tissues until a stable response was reached and for a maximum of 30 minutes. If an agonist type response (contraction) was registered, the reference antagonist (Saralasine at 0.01 μM) was tested regarding the highest concentration of the compounds according to the invention to confirm the involvement of the AT1 receptors in the response.
After stabilization of the contraction induced by angiotensin II, increasing concentrations of compounds according to the invention or of the reference antagonist (Saralasine) were added cumulatively. Each concentration was left in contact with the tissues until a stable response was observed and for a maximum of 30 minutes.
The inhibiting effect of the compounds according to the invention on the contraction induced by the angiotensin 11 indicates antagonist activity on AT1 receptors.

[2] = biological target: T2, hPPARα (Homo sapiens, UniProt Q07869); assay: Gal4-hPPARα transactivation in COS-7 cells (luciferase); type: cell-based; conditions: COS-7 cells transfected pGal4-hPPAR, 0.01 to 100 μM
T2 construct: DNA fragments amplified by PCR and corresponding to the DEF domains of human PPARα, PPARγ, and PPARδ nuclear receptors; expressed in transfected cells; host or cells: COS-7
T2 sequence (Q07869 239-466 limits assumed): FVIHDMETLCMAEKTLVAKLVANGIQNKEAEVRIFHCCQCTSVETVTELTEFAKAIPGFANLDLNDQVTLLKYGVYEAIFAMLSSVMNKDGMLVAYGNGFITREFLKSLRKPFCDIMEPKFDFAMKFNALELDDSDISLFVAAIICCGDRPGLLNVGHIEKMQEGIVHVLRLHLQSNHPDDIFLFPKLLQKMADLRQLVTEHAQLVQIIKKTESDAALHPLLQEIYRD
Protocol: (§1) The activation of PPARs was evaluated in vitro using a monkey kidney fibroblast line (COS-7) by measuring the transcriptional activity of chimeras made up of the DNA binding domain of the Gal4 transcription factor of yeast and of the binding domain to the ligand of the different PPARs. The compounds were tested at doses of between 0.01 and 100 μM on Gal4-PPARα, γ, and δ chimeras.
(§2) COS-7 cells came from ATCC (American type culture collection) and were cultivated in a DMEM medium supplemented with 10% (vol/vol) of fetal calf serum, 100 U/ml of penicillin (Gibco, Paisley, UK) and 2 mM of L-Glutamine (Gibco, Paisley, UK). The cells were incubated at 37° C. under humid atmosphere containing 5% CO2.
(§3) The plasmids Gal4(RE)_TkpGL3, pGal4-hPPARα, pGal4-hPPARγ, pGal4-hPPARδ and pGal4-φ have been described in the literature (Raspe E et al., 1999). The constructions pGal4-hPPARα, pGal4-hPPARγ, and pGal4-hPPARδ were obtained by cloning, in the pGal4-φ vector, DNA fragments amplified by PCR and corresponding to the DEF domains of human PPARα, PPARγ, and PPARδ nuclear receptors.
(§4) The COS-7 cells in suspension were transfected with 150 ng of DNA per well, with a pGal4-PPAR/Gal4(RE)_TkpGL3 ratio of 1/10, in presence of 10% fetal calf serum. The cells were then plated in 96-well plates (4×10^4 cells/well), then incubated for 24 hours at 37° C. Activation with the test compounds was performed for 24 hours at 37° C. in a medium without serum. At the end of the experiment, the cells were lysed and the luciferase activity was determined using the Steady-Lite™ HTS (Perkin Elmert) or the Steady Glow Luciferase kit (Promega), in accordance with the provider's recommendations.
(§5) The compounds according to the invention were tested at doses between 0,01 and 100 μM on the 3 PPAR isoforms. The results obtained are presented in detail under FIG. 1a.

[3] = biological target: T3, hPPARγ (Homo sapiens, UniProt P37231); assay: Gal4-hPPARγ transactivation in COS-7 cells (luciferase); type: cell-based; conditions: COS-7 cells transfected pGal4-hPPAR, 0.01 to 100 μM
T3 construct: DNA fragments amplified by PCR and corresponding to the DEF domains of human PPARα, PPARγ, and PPARδ nuclear receptors; expressed in transfected cells; host or cells: COS-7
T3 sequence (P37231 238-503 limits assumed): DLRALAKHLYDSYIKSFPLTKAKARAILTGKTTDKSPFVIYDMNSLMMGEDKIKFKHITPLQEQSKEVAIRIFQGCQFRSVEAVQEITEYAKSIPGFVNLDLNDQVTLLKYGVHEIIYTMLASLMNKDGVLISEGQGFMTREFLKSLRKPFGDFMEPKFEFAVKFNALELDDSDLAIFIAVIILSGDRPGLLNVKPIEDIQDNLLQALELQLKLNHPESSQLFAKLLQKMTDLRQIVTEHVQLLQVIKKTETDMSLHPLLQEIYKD
Protocol: as §1, §2, §3, §4, §5

[4] = system: PPARs target genes; assay: Expression of PPAR target genes by quantitative RT-PCR in db/db mouse tissue; type: in vivo; conditions: db/db mice, 50 mpk for 28 days
Protocol: Samples of hepatic tissue and adipose epididymal tissue were taken and frozen immediately in liquid nitrogen then conserved at −80° C. for later analysis.
Total RNA was extracted from liver fragments by using a NucleoSpine 96 RNA kit (Macherey Nagel, Hoerdt, France) according to the manufacturer's instructions.
The total RNA of the adipose tissue was extracted from tissue fragments with a method using guanidine thiocyanate. The tissues were briefly homogenized in 5 mL of a lysis buffer (guanidine thiocyanate 4M, EDTA pH8 10 mM, Tris HCl pH 7.5 50 mM and b-mercaptoethanol 1.4%) using polytron. To separate the layers, 500 μL of sodium acetate 2M pH4, 5 mL of phenol, and 2 mL of a mixture of chloroform/isoamylic alcohol (49:1) were added. After centrifugation, the aqueous layer was collected and the RNA was precipitated in the presence of isopropanol. After a second precipitation, the RNA was washed with ethanol 70°, dried, then suspended again in an volume of water free of RNase. A step of purification/DNase I treatment of the RNA was then carried out by using NucleoSpin® 96 RNA kit (Macherey-Nagel) according to the manufacturer's instructions. 1 μg of total RNA (quantified by using the Ribogreen RNA quantification kit (Molecular Probes)) was then reverse-transcribed into cDNA by means of a 1 hour reaction at 37° C. in a total volume of 20 μl containing a buffer 1× (Sigma), 1.5 mM of DTT, 0.18 mM, of dNTPs (Promega), 200 ng of pdN6 (Amersham), 30 U of RNase inhibitor (Sigma), and 1 μl of MMLV-RT (Sigma). The quantitative PCR experiments were carried out using the MyiQ Single-Color Real-Time PCR Detection System (Biorad, Marnes-la-Coquette, France) and were performed using the iQ SYBR Green Supermix kit according to the manufacturer's recommendations, in 96-well plates in 5 μl of a diluted reverse transcription solution at a hybridization temperature of 55° C. Primer pairs specific to the studied genes were used:
The quantity of emitted fluorescence is directly proportional to the quantity of cDNA present at the beginning of the reaction and amplified during the PCR. For each target studied, a range of solutions is performed with successive dilutions of a mixture made up of a few μl of different reverse-transcription solutions. The relative levels of expression of each target are thus determined by using efficiency curves obtained with the points relative to the range.
The expression levels of the genes of interest were then normalized, in the hepatic tissue with respect to the level expression of reference gene 36B4 (whose specific primers are: sense primer: 5′-[…]-3′ (SEQ ID NO: 15) and antisense primer: 5′-[…]-3′ (SEQ ID NO: 16)), and in the adipose tissue with respect to reference gene 18S (whose specific primers are: sense primer: 5′-[…]-3′ (SEQ ID NO: 17) and antisense primer: 5′-[…]-3′ (SEQ ID NO: 18)). The induction factor was then calculated for each sample. The higher the induction factor is, the more the compound promotes gene expression. The final result is represented as the average of the induction values within each experimental group.

SMILES | agonist activity (contraction) [1] | antagonist activity (inhibition of contractile response to angiotensin II) [1] | melting point [°C] | activation of hPPARα (luciferase activity) [2] | activation of hPPARγ (luciferase activity) [3] | hepatic expression of the gene coding for CPT1 b [4] | hepatic expression of the gene coding for PDK-4 [4] | expression of the gene coding for ApoCIII ([4]; liver) | expression of the gene coding for FBb ([4]; liver)
CCCCC1=NC2(CCCCC2)C(=O)N1Cc1ccc(-c2cccc(OC(C)C(=O)O)c2)cc1 (centres unmarked) [Compound 53] | do not induce contraction | inhibiting effect of the contractile response of the reference agonist | 85 | – | – | – | – | – | –
CCCCC1=NC2(CCCC2)C(=O)N1Cc1ccc(-c2cc(OC(C)(C)C(=O)O)ccc2CC)cc1 [Compound 80, 2-butyl-1-[(3′-((1-carboxy-1,1-dimethylmethyl)oxy)-6′-ethyl-biphenyl-4-yl)methyl]-4-spirocyclopentyl-1H-imidazol-5(4H)-one] | do not induce contraction | inhibiting effect of the contractile response of the reference agonist | 143 | – | – | – | – | – | –
CCCCC1=NC2(CCCCC2)C(=O)N1Cc1ccc(-c2ccc(OC(C)(C)C(=O)O)cc2)cc1 [Compound 25, 2-butyl-1-[(4′-((1-carboxy-1,1-dimethylmethyl)oxy)biphenyl-4-yl)methyl]-4-spirocyclohexyl-1H-imidazol-5(4H)-one] | – | – | 75 to 77 | activates only hPPARα | activates only hPPARα | – | – | – | –
CCCCC1=NC2(CCCC2)C(=O)N1Cc1ccc(-c2ccc(OC(C)(C)C(=O)O)cc2)cc1 [Compound 2, 2-butyl-1-[(4′-((1-carboxy-1,1-dimethylmethyl)oxy)biphenyl-4-yl)methyl]-4-spirocyclopentyl-1H-imidazol-5(4H)-one] | – | – | 180 | – | – | significant increase | significant increase | significant decrease | significant decrease
